Reference: patent publication US20150313236A1 (ROHM AND HAAS COMPANY, priority 2012, published 2015)
Like-named read-outs stand apart in the source and are kept apart here.

What was measured:
Chlorella sp. ATCC 7516 = assay: Algal efficacy test of dry paint films (modified ASTM 5589, 6-well plates); type: cell-based; details: for inhibition at 2000 ppm: 504 h, read-out: % inhibition of visible algal growth
Experimental: (§1) ROCIMA™ 250 (40% IPBC) was post added to a white, acrylic/silicone based outdoor paint free of biocides to give a total active ingredient concentration of 10000 and 1000 ppm respectively. These paints were then diluted with an antimicrobial free acrylic/silicone based paint and mixed to prepare targeted concentrations of antimicrobial compounds for the testing. The total biocides concentrations tested were 125, 250, 500, 1000, 2000 and 5000 ppm. After biocides addition or dilution, the paints were mixed 90 seconds with the horse power shaker (AXEL 75M3372/Agitateur SO-10MI) until uniformity was achieved. Paints containing different antimicrobial compounds at the same levels were mixed together in order to obtain the desired ratio of antimicrobial compounds. After one day, the paints were applied to Schleicher & Schuell filter paper at 280 μm wet film thickness and dried for 3 days at room temperature avoiding direct exposure to sunlight. Square discs (1.6 cm×1.6 cm) were cut out from each panel and were used as the substrate for algal efficacy tests. This sample size allowed for an agar border when the sample disc was placed into the well of the test plate.
(§2) Algal efficacy was tested according to modified ASTM 5589 which is a standard accelerated test method for determining resistance of various coatings (including paints) to algal defacement. To accommodate for high-throughput screening, this method was scaled down from petri dishes to 6-well plates. Bold Modified Basal Freshwater Nutrient Solution was used as growth medium. A single coated filter paper coupon was placed with a pair of sterile forceps at the center of the agar plug (on top) with the painted surface facing upwards. Algal inoculums were prepared by mixing equal concentrations (1×10^6 cfu/ml) and equal volumes of exponentially growing algae cultures.
(§3) Each well that contains a tested coupon was inoculated with 1750 μl of algal suspensions (1×10^6 cfu/ml) making sure that the whole surface (paint film as well as the agar surrounding it) was evenly covered. The plates were incubated at room temp (21° C.-25° C.) with cyclic exposure to light and dark phases, for a period of three weeks.
(§4) At the end of the three week incubation period, the samples were scored for percent inhibition regarding visible algal growth compared to the blank sample (0% inhibition).
(§5) The Synergy Index calculation was performed as follows.
(§6) The SI is calculated based on F. C. Kull et.
(§7) SI value of <1 in the formula indicates a synergism of the blended biocides exists.
(§8) The minimal targeted inhibition was set at 75%, meaning a coupon with at least 75% algal growth inhibition was considered as a pass.

[1] = test system: Stichococcus bacillaris SAG 379-1a; assay: as above; type: cell-based; details: 3 weeks
Experimental: as §1, §2, §3, §4, §5, §6, §7, §8

Compound | inhibition at 2000 ppm (Chlorella sp. ATCC 7516; total conc 2000 ppm, 3 weeks, vs blank sample) [%] | Total conc (minimum inhibitory concentration chosen for SI; pass level ≧75% inhibition) (Chlorella sp. ATCC 7516; total active in liquid paint, dry film, 3 weeks) [ppm] | inhibition at 1000 ppm ([1]; Stichococcus bacillaris, 504 h, total conc 1000 ppm, vs blank sample, read-out: % inhibition of visible algal growth) [%] | Total conc (minimum inhibitory concentration chosen for SI; pass level ≧75% inhibition) ([1]; total active in liquid paint, dry film) [ppm] | inhibition at 2000 ppm (Chlorella sp. ATCC 7516) [%] | inhibition at 2000 ppm ([1]; Stichococcus bacillaris, 504 h, total conc 2000 ppm, vs blank sample, read-out: % inhibition of visible algal growth) [%]
CCCCNC(=O)OCC#CI [IPBC, 3-Iodoprop-2-yn-1-yl butylcarbamate] | 100 | 2000 | 100 | 1000 | – | –
O=c1[nH]c2c(c(=O)n1C1CCCCC1)CCC2 [Lenacil, 3-cyclohexyl-1,5,6,7-tetrahydrocyclopentapyrimidine-2,4(3H)-dione] | – | – | – | – | 65 | 80
